#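 A five-concentration, 48-hour dose response in 96-well plates underlies each endpoint, interpolated linearly between surrounding concentrations. TGI: total growth inhibition.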
# What was measured:
# Experiment in all cases: NCI tumour cell line growth inhibition, 48 h
# 786-0 renal = test system: 786-0 renal
# SW-620 colon = test system: SW-620 colon
# SK-OV-3 ovarian = test system: SK-OV-3 ovarian
# ACHN renal = test system: ACHN renal
# SK-MEL-28 melanoma = test system: SK-MEL-28 melanoma
# HOP-62 NSCLC = test system: HOP-62 NSCLC
# DMS 273 small cell lung = test system: DMS 273 small cell lung
# RPMI-8226 leukemia = test system: RPMI-8226 leukemia
# SK-MEL-2 melanoma = test system: SK-MEL-2 melanoma
# K-562 leukemia = test system: K-562 leukemia
# SNB-75 CNS = test system: SNB-75 CNS
# MALME-3M melanoma = test system: MALME-3M melanoma
# U251 CNS = test system: U251 CNS
# LXFL 529 NSCLC = test system: LXFL 529 NSCLC
# UO-31 renal = test system: UO-31 renal
# KM20L2 colon = test system: KM20L2 colon
# IGROV1 ovarian = test system: IGROV1 ovarian
# EKVX NSCLC = test system: EKVX NSCLC
# LOX IMVI melanoma = test system: LOX IMVI melanoma
# A549 NSCLC = test system: A549 NSCLC
# NCI-H23 lung = test system: NCI-H23 lung
# DMS 114 small cell lung = test system: DMS 114 small cell lung
# UACC-257 melanoma = test system: UACC-257 melanoma
# UACC-62 melanoma = test system: UACC-62 melanoma
# SNB-78 CNS = test system: SNB-78 CNS
# SF-539 CNS = test system: SF-539 CNS
# SF-268 CNS = test system: SF-268 CNS
# OVCAR-5 ovarian = test system: OVCAR-5 ovarian
# NCI-H460 lung = test system: NCI-H460 lung
# DLD-1 colon = test system: DLD-1 colon
# OVCAR-4 ovarian = test system: OVCAR-4 ovarian
# CAKI-1 renal = test system: CAKI-1 renal
# SK-MEL-5 melanoma = test system: SK-MEL-5 melanoma
# HOP-92 NSCLC = test system: HOP-92 NSCLC
# HT29 colon = test system: HT29 colon
# NCI-H522 lung = test system: NCI-H522 lung
# TK-10 renal = test system: TK-10 renal
# OVCAR-8 ovarian = test system: OVCAR-8 ovarian
# HCT-15 colon = test system: HCT-15 colon
# XF 498 CNS = test system: XF 498 CNS
# CCRF-CEM leukemia = test system: CCRF-CEM leukemia
# M14 melanoma = test system: M14 melanoma
# M19-MEL melanoma = test system: M19-MEL melanoma
# HCT-116 colon = test system: HCT-116 colon
# NCI-H226 lung = test system: NCI-H226 lung
# SNB-19 CNS = test system: SNB-19 CNS
# RXF 393 renal = test system: RXF 393 renal
# A498 renal = test system: A498 renal
# HCC-2998 colon = test system: HCC-2998 colon
# HOP-18 NSCLC = test system: HOP-18 NSCLC
# HL-60(TB) leukemia = test system: HL-60(TB) leukemia
# COLO 205 colon = test system: COLO 205 colon
# OVCAR-3 ovarian = test system: OVCAR-3 ovarian
# KM12 colon = test system: KM12 colon
# SN12C renal = test system: SN12C renal
# MOLT-4 leukemia = test system: MOLT-4 leukemia
# SF-295 CNS = test system: SF-295 CNS
# SR leukemia = test system: SR leukemia
# RXF-631 renal = test system: RXF-631 renal
compound,measurement,setting,value
CS(=O)(=O)NNS(=O)(=O)c1ccc(Br)cc1,TGI,786-0 renal,> 100 µM
same,TGI,SW-620 colon,> 100 µM
same,TGI,SK-OV-3 ovarian,> 100 µM
same,TGI,ACHN renal,> 100 µM
same,TGI,SK-MEL-28 melanoma,> 100 µM
same,TGI,HOP-62 NSCLC,> 100 µM
same,TGI,DMS 273 small cell lung,> 100 µM
same,TGI,RPMI-8226 leukemia,> 100 µM
same,TGI,SK-MEL-2 melanoma,> 100 µM
same,TGI,K-562 leukemia,> 100 µM
same,TGI,SNB-75 CNS,> 100 µM
same,TGI,MALME-3M melanoma,> 100 µM
same,TGI,U251 CNS,> 100 µM
same,TGI,LXFL 529 NSCLC,> 100 µM
same,TGI,UO-31 renal,> 100 µM
same,TGI,KM20L2 colon,> 100 µM
same,TGI,IGROV1 ovarian,> 100 µM
same,TGI,EKVX NSCLC,> 100 µM
same,TGI,LOX IMVI melanoma,> 100 µM
same,TGI,A549 NSCLC,> 100 µM
same,TGI,NCI-H23 lung,> 100 µM
same,TGI,DMS 114 small cell lung,> 100 µM
same,TGI,UACC-257 melanoma,> 100 µM
same,TGI,UACC-62 melanoma,> 100 µM
same,TGI,SNB-78 CNS,> 100 µM
same,TGI,SF-539 CNS,> 100 µM
same,TGI,SF-268 CNS,> 100 µM
same,TGI,OVCAR-5 ovarian,> 100 µM
same,TGI,NCI-H460 lung,> 100 µM
same,TGI,DLD-1 colon,> 100 µM
same,TGI,OVCAR-4 ovarian,> 100 µM
same,TGI,CAKI-1 renal,> 100 µM
same,TGI,SK-MEL-5 melanoma,> 100 µM
same,TGI,HOP-92 NSCLC,> 100 µM
same,TGI,HT29 colon,> 100 µM
same,TGI,NCI-H522 lung,> 100 µM
same,TGI,TK-10 renal,> 100 µM
same,TGI,OVCAR-8 ovarian,> 100 µM
same,TGI,HCT-15 colon,> 100 µM
same,TGI,XF 498 CNS,> 100 µM
same,TGI,CCRF-CEM leukemia,> 100 µM
same,TGI,M14 melanoma,> 100 µM
same,TGI,M19-MEL melanoma,> 100 µM
same,TGI,HCT-116 colon,> 100 µM
same,TGI,NCI-H226 lung,> 100 µM
same,TGI,SNB-19 CNS,> 100 µM
same,TGI,RXF 393 renal,> 100 µM
same,TGI,A498 renal,> 100 µM
same,TGI,HCC-2998 colon,> 100 µM
same,TGI,HOP-18 NSCLC,> 100 µM
same,TGI,HL-60(TB) leukemia,> 100 µM
same,TGI,COLO 205 colon,> 100 µM
On1c(-c2ccccc2)c(-c2c(-c3ccccc3)n(O)c3ccccc23)c2ccccc21,TGI,786-0 renal,39.7 µM
same,TGI,OVCAR-3 ovarian,> 100 µM
same,TGI,KM12 colon,> 100 µM
same,TGI,SK-OV-3 ovarian,80.6 µM
same,TGI,ACHN renal,87.5 µM
same,TGI,SK-MEL-28 melanoma,> 100 µM
same,TGI,SN12C renal,> 100 µM
same,TGI,DMS 273 small cell lung,> 100 µM
same,TGI,SK-MEL-2 melanoma,59.2 µM
same,TGI,K-562 leukemia,> 100 µM
same,TGI,SNB-75 CNS,94 µM
same,TGI,MALME-3M melanoma,79.7 µM
same,TGI,U251 CNS,> 100 µM
same,TGI,LXFL 529 NSCLC,20 µM
same,TGI,UO-31 renal,53 µM
same,TGI,LOX IMVI melanoma,73.2 µM
same,TGI,A549 NSCLC,> 100 µM
same,TGI,NCI-H23 lung,90.1 µM
same,TGI,DMS 114 small cell lung,66 µM
same,TGI,UACC-257 melanoma,88.9 µM
same,TGI,UACC-62 melanoma,> 100 µM
same,TGI,SNB-78 CNS,> 100 µM
same,TGI,SF-539 CNS,58.8 µM
same,TGI,SF-268 CNS,> 100 µM
same,TGI,NCI-H460 lung,49.4 µM
same,TGI,DLD-1 colon,> 100 µM
same,TGI,OVCAR-4 ovarian,> 100 µM
same,TGI,SK-MEL-5 melanoma,50 µM
same,TGI,MOLT-4 leukemia,> 100 µM
same,TGI,HT29 colon,> 100 µM
same,TGI,SF-295 CNS,61.9 µM
same,TGI,NCI-H522 lung,52.3 µM
same,TGI,TK-10 renal,> 100 µM
same,TGI,OVCAR-8 ovarian,> 100 µM
same,TGI,HCT-15 colon,> 100 µM
same,TGI,XF 498 CNS,71 µM
same,TGI,CCRF-CEM leukemia,> 100 µM
same,TGI,M19-MEL melanoma,> 100 µM
same,TGI,HCT-116 colon,> 100 µM
same,TGI,NCI-H226 lung,64.7 µM
same,TGI,SNB-19 CNS,> 100 µM
same,TGI,RXF 393 renal,> 100 µM
same,TGI,HOP-18 NSCLC,86.3 µM
same,TGI,HL-60(TB) leukemia,> 100 µM
Cc1c(/C=C2\CC/C(=C\c3[nH]c(C(=O)OC(C)(C)C)c(C)c3C)C2=O)[nH]c(C(=O)OC(C)(C)C)c1C,TGI,786-0 renal,> 100 µM
same,TGI,OVCAR-3 ovarian,> 100 µM
same,TGI,KM12 colon,> 100 µM
same,TGI,SW-620 colon,> 100 µM
same,TGI,SK-OV-3 ovarian,> 100 µM
same,TGI,HOP-62 NSCLC,> 100 µM
same,TGI,SN12C renal,> 100 µM
same,TGI,DMS 273 small cell lung,> 100 µM
same,TGI,RPMI-8226 leukemia,> 100 µM
same,TGI,SK-MEL-2 melanoma,> 100 µM
same,TGI,K-562 leukemia,> 100 µM
same,TGI,SNB-75 CNS,> 100 µM
same,TGI,MALME-3M melanoma,> 100 µM
same,TGI,U251 CNS,> 100 µM
same,TGI,LXFL 529 NSCLC,> 100 µM
same,TGI,UO-31 renal,> 100 µM
same,TGI,KM20L2 colon,> 100 µM
same,TGI,IGROV1 ovarian,> 100 µM
same,TGI,EKVX NSCLC,> 100 µM
same,TGI,LOX IMVI melanoma,> 100 µM
same,TGI,A549 NSCLC,> 100 µM
same,TGI,NCI-H23 lung,> 100 µM
same,TGI,DMS 114 small cell lung,> 100 µM
same,TGI,UACC-257 melanoma,> 100 µM
same,TGI,UACC-62 melanoma,> 100 µM
same,TGI,SNB-78 CNS,> 100 µM
same,TGI,SF-539 CNS,> 100 µM
same,TGI,SF-268 CNS,> 100 µM
same,TGI,OVCAR-5 ovarian,> 100 µM
same,TGI,NCI-H460 lung,> 100 µM
same,TGI,DLD-1 colon,> 100 µM
same,TGI,OVCAR-4 ovarian,> 100 µM
same,TGI,CAKI-1 renal,> 100 µM
same,TGI,SK-MEL-5 melanoma,> 100 µM
same,TGI,SR leukemia,> 100 µM
same,TGI,HOP-92 NSCLC,> 100 µM
same,TGI,MOLT-4 leukemia,> 100 µM
same,TGI,HT29 colon,> 100 µM
same,TGI,SF-295 CNS,> 100 µM
same,TGI,NCI-H522 lung,> 100 µM
same,TGI,TK-10 renal,> 100 µM
same,TGI,OVCAR-8 ovarian,> 100 µM
same,TGI,HCT-15 colon,> 100 µM
same,TGI,XF 498 CNS,> 100 µM
same,TGI,CCRF-CEM leukemia,> 100 µM
same,TGI,M14 melanoma,> 100 µM
same,TGI,M19-MEL melanoma,> 100 µM
same,TGI,HCT-116 colon,> 100 µM
same,TGI,NCI-H226 lung,> 100 µM
same,TGI,SNB-19 CNS,> 100 µM
same,TGI,RXF 393 renal,> 100 µM
same,TGI,A498 renal,> 100 µM
same,TGI,HCC-2998 colon,> 100 µM
same,TGI,HOP-18 NSCLC,> 100 µM
same,TGI,HL-60(TB) leukemia,> 100 µM
same,TGI,COLO 205 colon,> 100 µM
O=C(/C=C/c1ccc(OCCCCCCCCCCOc2ccc(/C=C/C(=O)c3ccc(Cl)cc3)cc2)cc1)c1ccc(Cl)cc1,TGI,786-0 renal,> 100 µM
same,TGI,OVCAR-3 ovarian,> 100 µM
same,TGI,KM12 colon,> 100 µM
same,TGI,SW-620 colon,> 100 µM
same,TGI,SK-OV-3 ovarian,> 100 µM
same,TGI,ACHN renal,> 100 µM
same,TGI,SK-MEL-28 melanoma,> 100 µM
same,TGI,HOP-62 NSCLC,> 100 µM
same,TGI,SN12C renal,> 100 µM
same,TGI,DMS 273 small cell lung,> 100 µM
same,TGI,RPMI-8226 leukemia,> 100 µM
same,TGI,SK-MEL-2 melanoma,> 100 µM
same,TGI,K-562 leukemia,> 100 µM
same,TGI,SNB-75 CNS,> 100 µM
same,TGI,MALME-3M melanoma,> 100 µM
same,TGI,U251 CNS,> 100 µM
same,TGI,UO-31 renal,> 100 µM
same,TGI,KM20L2 colon,> 100 µM
same,TGI,IGROV1 ovarian,> 100 µM
same,TGI,EKVX NSCLC,> 100 µM
same,TGI,LOX IMVI melanoma,> 100 µM
same,TGI,A549 NSCLC,> 100 µM
same,TGI,RXF-631 renal,> 100 µM
same,TGI,NCI-H23 lung,> 100 µM
same,TGI,DMS 114 small cell lung,> 100 µM
same,TGI,UACC-257 melanoma,> 100 µM
same,TGI,UACC-62 melanoma,> 100 µM
same,TGI,SNB-78 CNS,> 100 µM
same,TGI,SF-539 CNS,> 100 µM
same,TGI,SF-268 CNS,> 100 µM
same,TGI,OVCAR-5 ovarian,> 100 µM
same,TGI,NCI-H460 lung,> 100 µM
same,TGI,DLD-1 colon,> 100 µM
same,TGI,CAKI-1 renal,> 100 µM
same,TGI,SK-MEL-5 melanoma,> 100 µM
same,TGI,HOP-92 NSCLC,> 100 µM
same,TGI,MOLT-4 leukemia,> 100 µM
same,TGI,HT29 colon,> 100 µM
same,TGI,SF-295 CNS,> 100 µM
same,TGI,NCI-H522 lung,> 100 µM
same,TGI,TK-10 renal,> 100 µM
same,TGI,OVCAR-8 ovarian,> 100 µM
same,TGI,HCT-15 colon,> 100 µM
same,TGI,CCRF-CEM leukemia,> 100 µM
same,TGI,NCI-H226 lung,> 100 µM
same,TGI,SNB-19 CNS,> 100 µM
same,TGI,RXF 393 renal,> 100 µM
same,TGI,A498 renal,> 100 µM
same,TGI,HCC-2998 colon,> 100 µM
same,TGI,HOP-18 NSCLC,> 100 µM
same,TGI,HL-60(TB) leukemia,> 100 µM
same,TGI,COLO 205 colon,> 100 µM

# Reference: PubChem BioAssay (NCI)
